{"source": "patent US11236056B2", "about": "“Small molecules and methods of reducing injuries caused by radiation or chemicals” (priority 2019, dated 2022)", "key": {"[1]": {"assay": "Solubility determination of UTS-14 compounds", "type": "physicochemical", "conditions": "thermodynamic from solid", "experimental": "If the compound was not dissolved, more solvent was added and the solution was watched again after one day. This procedure was continued until the compound was completely dissolved, after which the solubility was calculated."}, "NIH-Swiss female mice [2]": {"tested_on": "NIH-Swiss female mice", "assay": "Radioprotection against TBI induced mortality, 30 min pretreatment (Example 2)", "type": "in vivo", "conditions": "80 mg/kg i.p. 30 min prior to 7.5 Gy TBI", "experimental": "NIH-Swiss female mice were divided into 5 groups (8 mice/group). Thirty min prior to 7.5 Gy TBI, mice were treated by i.p. injection with UTS-1401, -1402, and -1403 (80 mg/kg each) or vehicle, respectively. Mice in control group were not irradiated. Definition of “death” used in this study was when a mouse actually died or when a mouse lost 20% or more of its bodyweight.\nFIG. 2 is a graph of the radioprotection of UTS-1401, -1402, and -1403 determined according to Example 2."}, "NIH-Swiss female mice [3]": {"tested_on": "NIH-Swiss female mice", "assay": "Drug dose-dependent radioprotection against TBI induced mortality, 30 min pretreatment (Example 3)", "type": "in vivo", "conditions": "25 or 75 mg/kg i.p. 30 min prior to 7.5 Gy TBI", "experimental": "NIH-Swiss female mice were divided into 4 groups (8 mice/group). Thirty min prior to 7.5 Gy TBI, mice were treated by i.p. injection with UTS-1401 (0, 2, or 6 mg/mL or 0, 25, or 75 mg/kg) or vehicle, respectively. Mice in control group were not irradiated. Definition of “death” used in this study was when a mouse actually died or when a mouse lost 20% or more of its bodyweight.\nFIG. 3 is a graph of the dose-dependent effect of UTS-1401 on TBI induced mortality in NIH-Swiss mice determined according to Example 3."}, "H9C2 cardiomyocytes": {"tested_on": "H9C2 cardiomyocytes", "assay": "Protection against doxorubicin-induced damage on cardiomyocytes in vitro (MTT assay)", "type": "cell-based", "conditions": "30 min pretreatment before DOX, assayed 3 days later", "experimental": "Briefly, myocardiocytes H9C2 were cultured in high glucose DMEM with 10% bovine calf serum and 10,000 cells per well of cardiomyocytes were treated by DOX with and without the 30 min pretreatment of UTS-1401. The survival rates were assayed by MTT assay 3 days later.\nFIG. 8 is a graph showing protection of UTS-1401 on H9C2 cardiomyocytes against DOX-induced determined according to Example 6."}, "NIH Swiss female mice": {"tested_on": "NIH Swiss female mice", "assay": "Radioprotection, 24 hr pretreatment, female mice (Example 5)", "type": "in vivo", "experimental": "Only 8.5 Gy results are summarized here.\nFIG. 7 is a graph of the effect of UTS-1401 on TBI induced mortality in NIH-Swiss mice administered at 150 mg/kg determined according to Example 5."}, "NIH-Swiss female mice [4]": {"tested_on": "NIH-Swiss female mice", "assay": "Radioprotection compared with amifostine, 45 min before or after TBI (Example 4)", "type": "in vivo", "experimental": "NIH-Swiss female mice were divided into 8 groups (10 mice/group). (A) Forty-five min prior to 7.5 Gy TBI, mice were treated by i.p. injection with UTS-1401 (75 mg/kg), amifostine (75 mg/kg) or vehicle, respectively. Mice in control group were not irradiated. (B) Same procedure as in (A) except that mice were treated by testing agents forty-five min after 7.5 Gy TBI.\nFIG. 4 is a graph of the effects of UTS-1401 and amifostine on TBI induced in NIH-Swiss mice mortality administered 45 minutes before TBI determined according to Example 4.\nFIG. 5 is a graph of the effects of UTS-1401 and amifostine on TBI induced in NIH-Swiss mice mortality administered 45 minutes after TBI determined according to Example 4."}, "NIH Swiss male mice": {"tested_on": "NIH Swiss male mice", "assay": "Radioprotection, 24 hr pretreatment, male mice (Example 5)", "type": "in vivo", "experimental": "NIH Swiss male mice were studied for the radioprotective effects of UTS-1401 at 50, 100, and 150 mg/kg respectively by i.p. injection at 24 hr before TBI at 6.5, 7.5, and 8.5 Gy. […] These observations indicate that UTS-1401 is effective as a radioprotector for male NIH Swiss mice against TBI of both 7.5 and 8.5 Gy.\nFIG. 6 is a graph of the effect of UTS-1401 on TBI induced mortality in NIH-Swiss mice administered at 100 mg/kg determined according to Example 5."}, "[5]": {"conditions": "water, rm temp, read-out: solubility in water"}, "[6]": {"conditions": "50, 100, and 150 mg/kg 24 hr before 8.5 Gy TBI"}, "[7]": {"conditions": "75 mg/kg i.p. 45 min after 7.5 Gy TBI"}, "[8]": {"conditions": "75 mg/kg i.p. 45 min before 7.5 Gy TBI"}}, "note": "Where two headings read alike, the source gives them in different places."}
{"compound": "CSCc1cc(C(=O)O)no1", "note": "[UTS-1401]", "values": [{"measurement": "solubility", "setting": "[1]; saline or isotonic, saline, 37° C., read-out: solubility in saline at 37° C.", "value": 12, "unit": "mg/mL"}, {"measurement": "solubility", "setting": "[1]; [5]", "value": "~9.5", "unit": "mg/mL"}, {"measurement": "survival of irradiated mice", "setting": "NIH-Swiss female mice [2]", "value": "increased the survival"}, {"measurement": "survival rate of mice", "setting": "NIH-Swiss female mice [3]", "value": "increased the survival rate of mice in a dose-dependent manner"}, {"measurement": "protection of cardiomyocytes (survival rates by MTT)", "setting": "H9C2 cardiomyocytes", "value": "protected cardiomyocytes significantly"}, {"measurement": "dose dependence of radioprotective effects", "setting": "NIH Swiss female mice; [6]", "value": "essentially the same for all 3 doses"}, {"measurement": "radioprotective effects / mortality", "setting": "NIH Swiss female mice; [6]", "value": "significant radioprotective effects and reduced the mortality"}, {"measurement": "optimal dose", "setting": "NIH Swiss female mice; 24 hr before 8.5 Gy TBI", "value": "around 50 mg/kg"}, {"measurement": "survival rate of mice", "setting": "NIH-Swiss female mice [4]; [7]", "value": "significantly increased the survival rate"}, {"measurement": "survival rate of mice", "setting": "NIH-Swiss female mice [4]; [8]", "value": "increased the survival rate"}, {"measurement": "radioprotection as compared with amifostine", "setting": "NIH-Swiss female mice [4]; 75 mg/kg i.p. 45 min before or after 7.5 Gy TBI", "value": "better radioprotection as compared with amifostine"}, {"measurement": "survival rates", "setting": "NIH Swiss male mice; 50, 100, 150 mg/kg i.p. 24 hr before 7.5 Gy TBI", "value": "greatly increased"}, {"measurement": "dose dependence of survival rates", "setting": "NIH Swiss male mice; 50, 100, 150 mg/kg i.p. 24 hr before 7.5 and 8.5 Gy TBI", "value": "drug-dose dependent"}, {"measurement": "survival rates", "setting": "NIH Swiss male mice; 50, 100, 150 mg/kg i.p. 24 hr before 8.5 Gy TBI", "value": "greatly increased"}, {"measurement": "day from which average body wt of surviving pretreated mice started to recover", "setting": "NIH Swiss male mice; i.p. 24 hr before TBI", "value": "~20", "unit": "days"}]}
{"compound": "C[S+]([O-])Cc1cc(C(=O)O)no1", "note": "(stereo not shown) [UTS-1402]", "values": [{"measurement": "solubility", "setting": "[1]; [5]", "value": "~16", "unit": "mg/mL"}, {"measurement": "survival of irradiated mice", "setting": "NIH-Swiss female mice [2]", "value": "increased the survival"}]}
{"compound": "CS(=O)(=O)Cc1cc(C(=O)O)no1", "note": "[UTS-1403]", "values": [{"measurement": "solubility", "setting": "[1]; Hank's Balanced Salt Solution (HBSS), saline or isotonic, read-out: solubility in Hank's Balanced Salt Solution (HBSS)", "value": "~15.8", "unit": "mg/mL"}, {"measurement": "solubility", "setting": "[1]; [5]", "value": "~9.1", "unit": "mg/mL"}, {"measurement": "survival of irradiated mice", "setting": "NIH-Swiss female mice [2]", "value": "increased the survival"}]}
{"compound": "NCCCNCCSP(=O)(O)O", "note": "[amifostine, Amifostine, reference compound]", "values": [{"measurement": "survival rate of mice", "setting": "NIH-Swiss female mice [4]; [7]", "value": "did not increase the survival rate"}, {"measurement": "survival rate of mice", "setting": "NIH-Swiss female mice [4]; [8]", "value": "increased the survival rate"}]}
